Assay results from ChEMBL document CHEMBL5113368, “Meroterpenoids produced by fungi: Occurrence, structural diversity, biological activities, and their molecular targets” (Eur J Med Chem, 2021).
Values belong to the compound of their own block, whether it stands above or below them.

Columns and labels:
[1] = molecular target: T1, Tyrosine-protein phosphatase non-receptor type 1 (Homo sapiens, UniProt P18031); assay: Inhibition of PTP1B (unknown origin) using pNPP as substrate by spectrophotometer analysis
T1 sequence (P18031 whole entry): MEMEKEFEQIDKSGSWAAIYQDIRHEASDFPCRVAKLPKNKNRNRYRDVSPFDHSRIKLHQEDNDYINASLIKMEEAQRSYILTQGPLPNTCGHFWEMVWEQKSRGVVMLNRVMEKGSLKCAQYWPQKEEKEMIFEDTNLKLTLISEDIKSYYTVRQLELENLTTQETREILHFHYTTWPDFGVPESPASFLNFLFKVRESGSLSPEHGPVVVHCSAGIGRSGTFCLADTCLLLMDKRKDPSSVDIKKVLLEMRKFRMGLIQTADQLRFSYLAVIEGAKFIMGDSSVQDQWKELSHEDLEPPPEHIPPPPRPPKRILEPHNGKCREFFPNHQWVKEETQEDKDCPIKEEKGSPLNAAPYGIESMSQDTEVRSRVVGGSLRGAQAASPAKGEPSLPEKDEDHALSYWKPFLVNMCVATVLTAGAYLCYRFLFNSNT

Acetylcholinesterase = Acetylcholinesterase (Homo sapiens, UniProt P22303); assay: Inhibition of human erythrocyte AChE using acetylthiocholine iodide as substrate incubated for 20 mins by DTNB reagent based spectrophotometric method
Chain of Acetylcholinesterase (P22303 whole entry): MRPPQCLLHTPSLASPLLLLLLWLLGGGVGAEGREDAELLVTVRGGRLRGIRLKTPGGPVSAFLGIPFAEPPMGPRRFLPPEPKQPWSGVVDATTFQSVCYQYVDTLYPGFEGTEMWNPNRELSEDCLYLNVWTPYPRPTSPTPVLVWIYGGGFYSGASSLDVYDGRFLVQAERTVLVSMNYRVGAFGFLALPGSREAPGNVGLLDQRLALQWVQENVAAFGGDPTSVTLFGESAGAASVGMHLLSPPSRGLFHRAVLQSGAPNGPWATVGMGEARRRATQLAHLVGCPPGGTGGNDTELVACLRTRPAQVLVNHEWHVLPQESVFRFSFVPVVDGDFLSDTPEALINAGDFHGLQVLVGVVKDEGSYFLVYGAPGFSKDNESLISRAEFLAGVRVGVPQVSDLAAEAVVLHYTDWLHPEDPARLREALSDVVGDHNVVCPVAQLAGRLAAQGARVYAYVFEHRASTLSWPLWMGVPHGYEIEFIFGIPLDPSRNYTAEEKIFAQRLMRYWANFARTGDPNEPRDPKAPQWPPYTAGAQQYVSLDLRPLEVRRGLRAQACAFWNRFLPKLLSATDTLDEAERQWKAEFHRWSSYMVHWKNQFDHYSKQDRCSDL

Staphylococcus aureus = assay: Antibacterial activity against Staphylococcus aureus assessed as bacterial growth inhibition; assay type: functional, organism-based
[2] = molecular target: T2, Pancreatic triacylglycerol lipase (Sus scrofa, UniProt P00591); assay: Inhibition of porcine pancreatic lipase using p-Nitrophenyl butyrate substrate incubated for 15 mins by spectrophotometer analysis
T2 sequence (P00591 whole entry): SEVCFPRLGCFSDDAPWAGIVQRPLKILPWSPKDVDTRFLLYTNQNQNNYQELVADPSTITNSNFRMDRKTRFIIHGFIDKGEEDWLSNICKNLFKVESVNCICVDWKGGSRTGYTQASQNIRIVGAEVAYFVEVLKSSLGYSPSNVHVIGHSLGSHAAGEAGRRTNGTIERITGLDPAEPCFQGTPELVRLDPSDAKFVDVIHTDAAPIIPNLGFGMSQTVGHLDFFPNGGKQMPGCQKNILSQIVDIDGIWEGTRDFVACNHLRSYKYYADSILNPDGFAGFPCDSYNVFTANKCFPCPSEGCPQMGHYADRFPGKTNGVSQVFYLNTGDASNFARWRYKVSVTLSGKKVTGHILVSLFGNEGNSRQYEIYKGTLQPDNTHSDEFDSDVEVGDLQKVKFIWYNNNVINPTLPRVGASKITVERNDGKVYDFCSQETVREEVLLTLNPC

K562 = assay: Cytotoxicity against human K562 cells assessed as cell growth inhibition by CCK-8 method; assay type: functional, cell-based
[3] = molecular target: Epithelial discoidin domain-containing receptor 1 (Homo sapiens, UniProt Q08345); assay: Inhibition of DDR1 (unknown origin) by lanthascreen eu kinase activity assay
Chain of Epithelial discoidin domain-containing receptor 1 (Q08345 whole entry, the tested form may be a part): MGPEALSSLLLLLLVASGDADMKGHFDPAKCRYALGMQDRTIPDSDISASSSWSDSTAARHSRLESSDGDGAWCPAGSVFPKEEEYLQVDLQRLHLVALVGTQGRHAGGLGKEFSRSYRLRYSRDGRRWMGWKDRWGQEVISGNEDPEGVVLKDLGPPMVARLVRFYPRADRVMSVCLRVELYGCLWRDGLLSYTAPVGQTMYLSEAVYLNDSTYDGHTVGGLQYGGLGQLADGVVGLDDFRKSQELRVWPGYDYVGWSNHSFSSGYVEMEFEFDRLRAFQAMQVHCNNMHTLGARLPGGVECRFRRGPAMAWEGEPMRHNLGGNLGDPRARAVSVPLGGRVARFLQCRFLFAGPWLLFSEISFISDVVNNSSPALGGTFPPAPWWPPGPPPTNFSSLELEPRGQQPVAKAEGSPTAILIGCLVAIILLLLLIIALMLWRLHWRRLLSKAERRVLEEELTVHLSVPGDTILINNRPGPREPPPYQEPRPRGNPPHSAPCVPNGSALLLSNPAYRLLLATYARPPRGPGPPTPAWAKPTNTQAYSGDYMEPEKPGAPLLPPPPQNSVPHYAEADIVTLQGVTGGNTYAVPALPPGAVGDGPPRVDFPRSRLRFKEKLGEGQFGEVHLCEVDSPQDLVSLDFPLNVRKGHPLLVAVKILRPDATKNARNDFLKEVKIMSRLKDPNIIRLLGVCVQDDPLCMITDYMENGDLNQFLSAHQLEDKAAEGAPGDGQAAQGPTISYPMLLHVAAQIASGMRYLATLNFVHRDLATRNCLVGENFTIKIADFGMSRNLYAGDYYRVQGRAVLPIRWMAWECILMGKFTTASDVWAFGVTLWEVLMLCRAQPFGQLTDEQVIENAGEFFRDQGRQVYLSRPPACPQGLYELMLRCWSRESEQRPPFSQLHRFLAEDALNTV

[4] = molecular target: T3, Prostaglandin G/H synthase 2 (Homo sapiens, UniProt P35354); assay: Inhibition of COX-2 (unknown origin)
T3 sequence (P35354 whole entry): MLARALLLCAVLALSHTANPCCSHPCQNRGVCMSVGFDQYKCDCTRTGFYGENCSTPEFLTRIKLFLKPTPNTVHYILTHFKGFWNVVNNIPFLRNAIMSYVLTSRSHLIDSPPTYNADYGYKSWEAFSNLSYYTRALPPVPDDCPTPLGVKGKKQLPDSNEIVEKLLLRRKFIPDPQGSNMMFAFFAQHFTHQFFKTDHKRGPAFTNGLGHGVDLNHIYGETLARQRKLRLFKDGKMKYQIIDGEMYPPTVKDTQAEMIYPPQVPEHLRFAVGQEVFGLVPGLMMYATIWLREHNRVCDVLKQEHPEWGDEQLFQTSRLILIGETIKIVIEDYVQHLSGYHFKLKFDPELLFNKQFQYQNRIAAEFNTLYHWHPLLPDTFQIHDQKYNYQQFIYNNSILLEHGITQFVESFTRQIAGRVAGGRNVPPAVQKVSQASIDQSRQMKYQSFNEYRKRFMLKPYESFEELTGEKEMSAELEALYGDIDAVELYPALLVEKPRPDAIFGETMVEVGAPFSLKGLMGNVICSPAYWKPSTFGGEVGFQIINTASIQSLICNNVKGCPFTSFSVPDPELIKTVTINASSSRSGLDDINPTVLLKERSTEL

[5] = molecular target: T3, Prostaglandin G/H synthase 2; assay: Inhibition of human recombinant COX-2 pretreated with compound for 10 mins followed by substrate addition for 10 mins by fluorescent inhibitor screening assay
KB = assay: Cytotoxicity against human KB cells assessed as cell growth inhibition; assay type: functional, cell-based
NCI-H187 = assay: Cytotoxicity against human NCI-H187 cells assessed as cell growth inhibition; assay type: functional, cell-based
RAW264.7 = assay: Anti-inflammatory activity in mouse RAW264.7 cells assessed as inhibition of NO production; assay type: functional, cell-based
[6] = Inhibition of Saccharomyces cerevisiae alpha-glucosidase using p-nitrophenyl-alpha-D -glucopyranoside as substrate pre-incubated for 10 mins followed by substrate addition measured after 15 mins by absorbance based analysis
[7] = molecular target: T4, Tyrosine-protein kinase JAK3 (Homo sapiens, UniProt P52333); assay: Inhibition of JAK3 (unknown origin) by FRET-based Z'-Lyte assay
T4 sequence (P52333 whole entry): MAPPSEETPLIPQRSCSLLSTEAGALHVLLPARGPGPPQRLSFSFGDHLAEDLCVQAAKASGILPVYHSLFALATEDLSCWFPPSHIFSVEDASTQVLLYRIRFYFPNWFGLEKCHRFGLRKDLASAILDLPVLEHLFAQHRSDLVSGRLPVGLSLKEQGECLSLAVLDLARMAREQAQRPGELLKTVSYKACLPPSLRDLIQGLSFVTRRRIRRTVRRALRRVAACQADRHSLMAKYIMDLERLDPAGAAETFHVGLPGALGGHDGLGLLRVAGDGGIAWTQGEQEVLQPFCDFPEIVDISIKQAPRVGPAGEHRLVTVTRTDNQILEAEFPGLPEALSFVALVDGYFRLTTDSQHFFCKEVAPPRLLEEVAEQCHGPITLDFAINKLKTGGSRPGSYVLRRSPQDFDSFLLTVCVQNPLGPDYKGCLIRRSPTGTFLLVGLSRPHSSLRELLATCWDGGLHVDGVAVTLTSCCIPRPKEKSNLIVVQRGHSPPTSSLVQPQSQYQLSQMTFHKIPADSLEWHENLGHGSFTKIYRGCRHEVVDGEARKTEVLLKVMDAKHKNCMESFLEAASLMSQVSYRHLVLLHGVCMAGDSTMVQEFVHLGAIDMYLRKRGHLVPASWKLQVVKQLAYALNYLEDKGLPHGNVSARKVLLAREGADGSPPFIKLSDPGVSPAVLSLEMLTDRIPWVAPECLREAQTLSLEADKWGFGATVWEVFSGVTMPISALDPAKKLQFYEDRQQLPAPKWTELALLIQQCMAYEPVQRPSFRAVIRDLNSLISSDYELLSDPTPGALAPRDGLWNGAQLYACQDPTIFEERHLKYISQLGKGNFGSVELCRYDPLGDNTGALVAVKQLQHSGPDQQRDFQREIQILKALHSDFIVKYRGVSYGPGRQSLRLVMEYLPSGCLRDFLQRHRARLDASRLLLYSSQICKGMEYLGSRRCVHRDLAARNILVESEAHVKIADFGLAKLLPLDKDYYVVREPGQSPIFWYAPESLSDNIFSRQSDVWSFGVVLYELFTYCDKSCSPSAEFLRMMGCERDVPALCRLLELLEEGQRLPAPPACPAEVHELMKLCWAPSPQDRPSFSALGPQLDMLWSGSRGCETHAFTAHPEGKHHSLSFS

[8] = molecular target: T3, Prostaglandin G/H synthase 2; assay: Inhibition of COX-2 (unknown origin) by fluorescent inhibitor screening assay

SMILES: CC(=O)O[C@@H]1c2c3c(cc(O)c2C(=O)O[C@@H]1C)O[C@@]1(C)[C@@H](O)C[C@H]2C(C)(C)[C@@H](O)C=C[C@]2(C)[C@@H]1C3
IC50 [1]: 62.5 µM

SMILES: CCOC1(c2cc(O)ccc2O)C=C(CC/C=C(\C)CCC=C(C)C)C(=O)O1 (stereo not drawn)
IC50 (Acetylcholinesterase): 7.37 µM

SMILES: C=C(C)C1CCC2(C(=O)OCC)CC13Oc1c(C/C=C(/CC/C=C(\C)CCC=C(C)C)C(=O)O)cc(O)cc1-c1c(O)ccc(c13)O2 (racemic)
IC50 (Staphylococcus aureus): 5.43 µM

SMILES: CC(C)=CCC/C(C)=C/CCC1=C[C@]2(OC1=O)c1cc(O)ccc1OC(=O)[C@@]2(CC/C=C(\C)CCC=C(C)C)CC(=O)c1cc(O)ccc1O
IC50 [2]: 2.5 µM

SMILES: C=C(C)C1CCC2(C(=O)OCC)CC13Oc1cc(C/C=C(/CC/C=C(\C)CCC=C(C)C)C(=O)O)c(O)cc1-c1c(O)ccc(c13)O2 (racemic)
IC50 (K562): 6.68 µM
IC50 (Staphylococcus aureus): 5.43 µM

SMILES: CO[C@@H]1OC(=O)[C@]2(CC(=O)c3cc(O)ccc3O)C[C@H]3[C@H](C/C=C(\CC(=O)c4cc(O)ccc4O)C(=O)O)C(C=O)=CO[C@H]3[C@]12C
IC50 [3]: 6.9 µM

SMILES: COC1(c2cc(O)ccc2O)C=C(CC[C@@H]2C(C)(C)[C@@H]3CC[C@]2(C)O3)C(=O)O1 (stereo partly drawn)
IC50 [4]: 9.96 µM

SMILES: CC(=O)O[C@H]1C[C@@H](O)[C@@]2(C)[C@@H](CC[C@]3(C)[C@@H]2[C@@H](O)C[C@]2(C)Oc4oc(C)cc(=O)c4C[C@@H]32)C1(C)C
IC50 (KB): 32.7 µM
IC50 (NCI-H187): 32.7 µM

SMILES: CO[C@H]1OC(=O)[C@@]2(CC(=O)c3cc(O)ccc3O)C[C@@H]3[C@@H](CCC4=C[C@H](c5cc(O)ccc5O)OC4=O)C(C=O)=CO[C@@H]3[C@@]12C (racemic)
IC50 [7]: < 10 µM

SMILES: C/C(=C/CC/C(C)=C/CC[C@]1(C(=O)O)CC(=O)c2cc(O)ccc2O1)C(=O)O
IC50 [8]: 1.05 µM

SMILES: O=C1C[C@]23CC[C@H](O)[C@]2(COC3=O)c2c(O)ccc(O)c21
IC50 [4]: 25.5 µM

The next lines start with the values.

IC50 [5]: 1.29 µM
SMILES: CC(C)=CCC/C(C)=C/CCC1=C[C@]2(OC1=O)c1cc(O)ccc1OC(=O)[C@@]2(CCC=C(C)C)CC(=O)c1cc(O)ccc1O (racemic)

IC50 [2]: 4 µM
SMILES: CC(C)=CCC/C(C)=C/CCC1=C[C@@]2(OC1=O)c1cc(O)ccc1OC(=O)[C@]2(CC/C=C(\C)CCC=C(C)C)CC(=O)c1cc(O)ccc1O

IC50 (RAW264.7): 5.9 µM
SMILES: CC1(C)CCC[C@]23C[C@](CC(=O)c4cc(O)ccc4O)(CC[C@@H]12)C(=O)O3

IC50 [6]: 40.8 µM
SMILES: COC(=O)[C@H](Cc1ccccc1)N1Cc2c(cc(O)c(C/C=C(\C)CC/C=C(\C)C(=O)O)c2O)C1=O

IC50 [1]: 71.6 µM
SMILES: C[C@@H]1Cc2c3c(c(Cl)c(O)c2C(=O)O1)O[C@@]1(C)[C@@H](O)C[C@H]2C(C)(C)C(=O)C(Cl)(Cl)C[C@]2(C)[C@@H]1C3
